Article PMC9519552, “Activation of the human insulin receptor by non-insulin-related peptides” (Nature Communications, 2022)
Where two headings read alike, the source gives them in different places. Positions of bridges follow the written chain, without caps; N, C: chain ends. Residues, ends and D or L forms follow the SMILES beside them.

Key:
[1] = molecular target: T1, human IR-A (holoIR-A) (Homo sapiens, UniProt P06213); assay: holoIR-A competitive radioligand binding assay (scintillation proximity assay); details: for Ki: IM172N22(-) mutant peptide set
T1 construct: expressed in transfected cells; host or cells: HEK293 (ATCC #CRL-1573), stably transfected; membrane preparation
T1 sequence (P06213 28-1370 isoform P06213-2 limits assumed): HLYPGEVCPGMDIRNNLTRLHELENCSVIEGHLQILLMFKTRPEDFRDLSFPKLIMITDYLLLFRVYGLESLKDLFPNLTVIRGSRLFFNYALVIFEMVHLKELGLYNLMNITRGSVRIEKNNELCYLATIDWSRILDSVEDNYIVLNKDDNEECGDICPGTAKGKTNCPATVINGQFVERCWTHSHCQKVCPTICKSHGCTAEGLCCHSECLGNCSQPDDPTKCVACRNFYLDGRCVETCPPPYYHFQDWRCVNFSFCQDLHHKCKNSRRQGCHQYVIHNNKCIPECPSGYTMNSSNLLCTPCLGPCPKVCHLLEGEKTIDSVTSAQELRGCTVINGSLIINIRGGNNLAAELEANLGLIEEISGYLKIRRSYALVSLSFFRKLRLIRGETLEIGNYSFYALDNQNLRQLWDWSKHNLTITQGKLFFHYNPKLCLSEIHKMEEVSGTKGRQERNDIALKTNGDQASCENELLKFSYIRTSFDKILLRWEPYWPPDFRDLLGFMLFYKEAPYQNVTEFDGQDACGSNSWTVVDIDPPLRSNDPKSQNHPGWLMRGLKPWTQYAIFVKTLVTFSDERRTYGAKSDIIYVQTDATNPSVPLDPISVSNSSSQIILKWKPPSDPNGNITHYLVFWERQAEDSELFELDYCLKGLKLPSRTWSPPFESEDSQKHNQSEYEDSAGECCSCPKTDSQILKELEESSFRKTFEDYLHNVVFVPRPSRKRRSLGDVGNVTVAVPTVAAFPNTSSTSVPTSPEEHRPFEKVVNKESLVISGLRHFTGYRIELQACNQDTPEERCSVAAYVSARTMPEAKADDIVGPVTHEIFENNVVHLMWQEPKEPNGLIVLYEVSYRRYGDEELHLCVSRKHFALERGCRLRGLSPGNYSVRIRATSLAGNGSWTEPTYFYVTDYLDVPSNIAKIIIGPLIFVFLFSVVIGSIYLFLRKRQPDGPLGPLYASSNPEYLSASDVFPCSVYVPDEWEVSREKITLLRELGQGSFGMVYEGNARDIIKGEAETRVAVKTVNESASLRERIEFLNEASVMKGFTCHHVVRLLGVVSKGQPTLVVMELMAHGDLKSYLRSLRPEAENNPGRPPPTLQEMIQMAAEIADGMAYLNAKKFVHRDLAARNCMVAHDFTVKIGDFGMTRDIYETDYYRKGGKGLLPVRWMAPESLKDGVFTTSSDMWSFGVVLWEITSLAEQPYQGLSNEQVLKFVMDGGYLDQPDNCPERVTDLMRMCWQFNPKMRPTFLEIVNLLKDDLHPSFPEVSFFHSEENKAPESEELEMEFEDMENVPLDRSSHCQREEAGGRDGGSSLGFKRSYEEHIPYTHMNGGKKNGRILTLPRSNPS
T1 sequence (P06213 763-1382 partner limits assumed): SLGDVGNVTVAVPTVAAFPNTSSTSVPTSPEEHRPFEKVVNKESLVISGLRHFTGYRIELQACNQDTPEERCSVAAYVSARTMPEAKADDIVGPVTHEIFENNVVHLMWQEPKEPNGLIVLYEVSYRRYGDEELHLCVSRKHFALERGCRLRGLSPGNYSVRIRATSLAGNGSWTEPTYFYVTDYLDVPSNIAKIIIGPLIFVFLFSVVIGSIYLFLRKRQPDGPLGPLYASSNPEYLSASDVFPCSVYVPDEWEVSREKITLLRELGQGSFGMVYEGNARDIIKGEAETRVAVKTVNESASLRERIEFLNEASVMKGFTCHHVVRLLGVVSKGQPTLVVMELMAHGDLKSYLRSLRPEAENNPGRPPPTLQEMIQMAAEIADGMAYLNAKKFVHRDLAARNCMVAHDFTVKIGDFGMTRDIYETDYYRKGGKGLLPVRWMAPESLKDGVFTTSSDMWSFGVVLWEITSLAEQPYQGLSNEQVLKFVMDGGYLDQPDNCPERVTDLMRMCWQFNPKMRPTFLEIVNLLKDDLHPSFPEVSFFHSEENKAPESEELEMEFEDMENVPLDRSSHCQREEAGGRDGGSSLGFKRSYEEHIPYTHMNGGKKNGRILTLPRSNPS
Description: Cellular membranes were prepared from human embryonic kidney (HEK293; ATCC #CRL-1573) cells stably transfected with cDNA corresponding to human IR-A (holoIR-A) plus a C-terminal C9 tag ([…]) inserted within a pcDNA3.1 plasmid (Invitrogen), with positive clones selected with 800 μg mL^−1 neomycin and confirmed by Western Blot. Frozen cell pellets were thawed in ice-cold homogenization/resuspension buffer (50 mM Tris-HCl, pH 7.5) containing one cOmplete® protease inhibitor tablet with EDTA (Roche Diagnostics) per 50 mL buffer. Cells were homogenized with an overhead motor-driven Teflon-glass homogenizer using 15–20 strokes, followed by centrifugation at 1100 × g for 10 min at 4 °C. The supernatant was saved on ice, pellets were homogenized as before, and centrifuged at 1100 × g for 10 min at 4 °C. Both supernatants were combined and subsequently centrifuged at 35,000 × g for 60 min at 4 °C. The pellet was resuspended in buffer (4 to 5 mL g^−1 of starting cell paste) containing protease inhibitors and quick frozen in liquid nitrogen prior to storage at −80 °C. Protein concentration was determined using a BCA kit (Thermo Scientific) with bovine serum albumin (BSA) as standard.
The assays were performed with a scintillation proximity assay (SPA) method using polyvinyltoluene (PVT) wheat germ agglutinin-coupled SPA beads (Perkin Elmer). Assay buffer containing 50 mM Tris-HCl (pH 7.5), 150 mM NaCl, 0.1% w/v fatty-acid free BSA was used for all compound testing and reagent preparation. Ten-point concentration response curves with three-fold serial dilutions of test samples or controls were prepared in the assay buffer. […] Plates were sealed and shaken for 1 min on a plate shaker. Following a 10-h incubation and bead settling period at room temperature, radioactivity was determined using a MicroBeta Trilux scintillation counter (Perkin Elmer) and expressed as counts per minute (CPM). […] Samples were tested in three independent assay runs on three different days.
All test sample concentration responses were normalized to the control response and calculated as a percent of the maximal response after correcting for nonspecific binding as shown below: %Specific Inhibition=100%−[(CPM−MIN)/(MAX−MIN)×100%]
Percent specific binding (y-axis) was plotted vs log concentration of compound (x-axis) using Prism Version 9.3.1 (GraphPad Software). Individual measurements are provided as Source Data.

[2] = molecular target: T2, human holoIR-A over-expressed in HEK293 cells (Homo sapiens, UniProt P06213); assay: Inhibition of hIR phosphorylation by peptides, co-incubated with BHI at its EC50 (ELISA); assay type: cell-based; details: for hIRA Phosph IC50 Run 1 / hIRA Phosph IC50 Run 2 / hIRA Phosph IC50 Run 3: inhibition of insulin-stimulated phosphorylation; for hIRA Phosph IC50 Run 1: BHI at its EC50, run 1; for hIRA Phosph IC50 Run 2: BHI at its EC50, run 2; for hIRA Phosph IC50 Run 3: BHI at its EC50, run 3; for IC50: read-out: hIRA Phosph IC50 Mean
T2 construct: expressed in transfected cells; host or cells: HEK293, stably transfected
T2 sequence (P06213 28-1370 isoform P06213-2 limits assumed): as the sequence (P06213 28-1370 isoform P06213-2 limits assumed) above
T2 sequence (P06213 763-1382 partner limits assumed): as the sequence (P06213 763-1382 partner limits assumed) above
Description: Phosphorylation was quantified using an ELISA technique. Ninety-six well, flat-bottom microplates (Greiner Bio-One) were pre-coated with 2 µg mL^−1 anti-C9 monoclonal antibody (Rho 1D4; University of British Columbia)[27] in 20 mM sodium carbonate, pH 9.6, at 4 °C for overnight prior to the assay. On the assay day, plates were washed 3× with 0.1% Tween in 50 mM Tris Buffer Saline, pH 7.5 (TBST), and then blocked for greater than 1 h at room temperature (RT) with 1% BSA (Sigma) in TBST.
Stably transfected HEK293 cells over-expressing human holoIR-A containing a C-terminal C9 epitope tag ([…]), were plated at 6 × 10^4 cells per well serum-starved using 0.1% BSA in DMEM (Gibco) for overnight at standard tissue culture condition. […] After a 15-min incubation in lysis buffer at 4 °C, the lysate was transferred to anti-C9 antibody coated capture plate (Rho 1D4; University of British Columbia)[27]. […] After a 1 h incubation at room temperature, the secondary antibody was removed by washing 3× with TBST. Signal detection occurred with the addition of TMB, an HRP substrate (Pierce). After 5–10 min, the reaction was stopped by adding an equal volume of 2 M H2SO4, and the absorbance readings at 450 nm (A450) were recorded using a Envision plate reader (PerkinElmer). Samples were tested in three independent assay runs on three different days.
Percent specific response (y-axis) was plotted versus the log concentration of compound (x-axis) using Prism Version 9.3.1 (GraphPad Software). Individual measurements are provided as Source Data.

[3] = mean of 3 runs, read-out: hIRA Binding Ki Mean
[4] = run 1, read-out: hIRA Binding Ki Run 1
[5] = run 2, read-out: hIRA Binding Ki Run 2
[6] = run 3, read-out: hIRA Binding Ki Run 3

| SMILES | Ki [1, 3] [nM] | Ki [1, 4] [nM] | Ki [1, 5] [nM] | Ki [1, 6] [nM] | reduction in ki for hIR-A on substitution ([1]; relative to control peptide IM172N22 devoid of N-terminal phenylacetylation) | hIRA Phosph IC50 Run 1 [2] [nM] | hIRA Phosph IC50 Run 2 [2] [nM] | hIRA Phosph IC50 Run 3 [2] [nM] | IC50 [2] [nM] | binding of the mutant peptide to hIR-A (in words) ([1]; alanine substitution in IM172N22(-)) |
| --- | --- | --- | --- | --- | --- | --- | --- | --- | --- | --- |
| CC[C@H](C)[C@H](NC(=O)[C@H](CCC(N)=O)NC(=O)[C@H](C)NC(=O)[C@H](Cc1c[nH]c2ccccc12)NC(=O)[C@H](CCC(=O)O)NC(=O)[C@H](C)NC(=O)[C@H](CCC(=O)O)NC(=O)[C@H](CC(C)C)NC(=O)[C@H](CO)NC(C)=O)C(=O)N[C@@H](CCC(=O)O)C(=O)N[C@H]1CSSC[C@@H](C(=O)N2CCC[C@H]2C(=O)N2CCC[C@H]2C(=O)N[C@@H](CO)C(=O)N[C@@H](CCC(=O)O)C(=O)N[C@@H](CO)C(N)=O)NC(=O)[C@H](CCCNC(=N)N)NC(=O)CNC(=O)[C@H](Cc2ccc(O)cc2)NC(=O)[C@H](C(C)C)NC(=O)[C@H](CCC(=O)O)NC1=O [Peptide E4A] (Ac-SLEAEWAQIECEVYGRCPPSES-NH2; disulfide 11-17) | 25.5 | 29.0 | 20.0 | 27.5 | lower than 5 fold | 241 | 205 | 206 | 217 | – |
| CC[C@H](C)[C@H](NC(=O)[C@H](CCC(N)=O)NC(=O)[C@H](C)NC(=O)[C@H](Cc1c[nH]c2ccccc12)NC(=O)[C@H](CCC(=O)O)NC(=O)[C@H](CCC(=O)O)NC(=O)[C@H](CCC(=O)O)NC(=O)[C@H](CC(C)C)NC(=O)[C@H](CO)NC(C)=O)C(=O)N[C@@H](CCC(=O)O)C(=O)N[C@H]1CSSC[C@@H](C(=O)N2CCC[C@H]2C(=O)N2CCC[C@H]2C(=O)N[C@@H](CO)C(=O)N[C@@H](CCC(=O)O)C(=O)N[C@@H](CO)C(N)=O)NC(=O)[C@H](CCCNC(=N)N)NC(=O)CNC(=O)[C@H](Cc2ccc(O)cc2)NC(=O)[C@H](C(C)C)NC(=O)[C@H](CCCNC(=N)N)NC1=O [Peptide E12R] (Ac-SLEEEWAQIECRVYGRCPPSES-NH2; disulfide 11-17) | 132 | 117 | 126 | 152 | – | 2869 | 2922 | 2670 | 2820 | – |
| CC(=O)N[C@@H](CO)C(=O)N[C@@H](CC(C)C)C(=O)N[C@@H](CCC(=O)O)C(=O)N[C@@H](CCC(=O)O)C(=O)N[C@@H](CCC(=O)O)C(=O)N[C@@H](Cc1c[nH]c2ccccc12)C(=O)N[C@@H](C)C(=O)N[C@@H](CCC(N)=O)C(=O)N[C@@H](C)C(=O)N[C@@H](CCC(=O)O)C(=O)N[C@H]1CSSC[C@@H](C(=O)N2CCC[C@H]2C(=O)N2CCC[C@H]2C(=O)N[C@@H](CO)C(=O)N[C@@H](CCC(=O)O)C(=O)N[C@@H](CO)C(N)=O)NC(=O)[C@H](CCCNC(=N)N)NC(=O)CNC(=O)[C@H](Cc2ccc(O)cc2)NC(=O)[C@H](C(C)C)NC(=O)[C@H](CCC(=O)O)NC1=O [Peptide I9A] (Ac-SLEEEWAQAECEVYGRCPPSES-NH2; disulfide 11-17) | 952 | 952 | 835 | 1068 | – | 4745 | 4291 | 4550 | 4530 | – |
| CC[C@H](C)[C@H](NC(=O)[C@H](CCC(N)=O)NC(=O)[C@H](C)NC(=O)[C@H](Cc1c[nH]c2ccccc12)NC(=O)[C@H](CCC(=O)O)NC(=O)[C@H](CCC(=O)O)NC(=O)[C@H](CCC(=O)O)NC(=O)[C@H](CC(C)C)NC(=O)[C@H](CO)NC(C)=O)C(=O)N[C@@H](CCCNC(=N)N)C(=O)N[C@H]1CSSC[C@@H](C(=O)N2CCC[C@H]2C(=O)N2CCC[C@H]2C(=O)N[C@@H](CO)C(=O)N[C@@H](CCC(=O)O)C(=O)N[C@@H](CO)C(N)=O)NC(=O)[C@H](CCCNC(=N)N)NC(=O)CNC(=O)[C@H](Cc2ccc(O)cc2)NC(=O)[C@H](C(C)C)NC(=O)[C@H](CCC(=O)O)NC1=O [Peptide E10R] (Ac-SLEEEWAQIRCEVYGRCPPSES-NH2; disulfide 11-17) | 3.7 | 3.77 | 3.11 | 4.23 | – | 27 | 27 | 24 | 26.2 | – |
| CC[C@H](C)[C@H](NC(=O)[C@H](CCC(N)=O)NC(=O)[C@H](C)NC(=O)[C@H](Cc1c[nH]c2ccccc12)NC(=O)[C@H](CCC(=O)O)NC(=O)[C@H](CCC(=O)O)NC(=O)[C@H](CCC(=O)O)NC(=O)[C@H](CC(C)C)NC(=O)[C@H](CO)NC(C)=O)C(=O)N[C@@H](CCC(=O)O)C(=O)N[C@H]1CSSC[C@@H](C(=O)N2CCC[C@H]2C(=O)N2CCC[C@H]2C(=O)N[C@@H](CO)C(=O)N[C@@H](CCC(=O)O)C(=O)N[C@@H](CO)C(N)=O)NC(=O)[C@H](C)NC(=O)CNC(=O)[C@H](Cc2ccc(O)cc2)NC(=O)[C@H](C(C)C)NC(=O)[C@H](CCC(=O)O)NC1=O [Peptide R16A] (Ac-SLEEEWAQIECEVYGACPPSES-NH2; disulfide 11-17) | 228 | 211 | 237 | 235 | – | 583 | 517 | 744 | 615 | – |
| CC[C@H](C)[C@H](NC(=O)[C@H](CCC(N)=O)NC(=O)[C@H](C)NC(=O)[C@H](Cc1c[nH]c2ccccc12)NC(=O)[C@H](CCC(=O)O)NC(=O)[C@H](CCC(=O)O)NC(=O)[C@H](CCC(=O)O)NC(=O)[C@H](C)NC(=O)[C@H](CO)NC(C)=O)C(=O)N[C@@H](CCC(=O)O)C(=O)N[C@H]1CSSC[C@@H](C(=O)N2CCC[C@H]2C(=O)N2CCC[C@H]2C(=O)N[C@@H](CO)C(=O)N[C@@H](CCC(=O)O)C(=O)N[C@@H](CO)C(N)=O)NC(=O)[C@H](CCCNC(=N)N)NC(=O)CNC(=O)[C@H](Cc2ccc(O)cc2)NC(=O)[C@H](C(C)C)NC(=O)[C@H](CCC(=O)O)NC1=O [Peptide L2A] (Ac-SAEEEWAQIECEVYGRCPPSES-NH2; disulfide 11-17) | > 5000 | >5000 | >5000 | >5000 | – | 7523 | 7642 | 7687 | 7620 | no detectable binding |
